The text below walks through data of ChEMBL document CHEMBL5465560, “Selectivity Literature for EUbOPEN Chemogenomic Library” (2024).

The target of experiment [1] is Bone morphogenetic protein receptor type-1A (Homo sapiens, UniProt P36894). In words: Selectivity interaction (LanthaScreen Eu Kinase Binding Assay) EUB0001632a BMPR1A. Particulars: at 10 µM. (In general: In TR-FRET formats the signal depends on donor and acceptor labels being close together.)
The target of experiment [2] is T1, Interleukin-1 receptor-associated kinase 4 (Homo sapiens) (UniProt Q9NWZ3).
T1 sequence (whole entry): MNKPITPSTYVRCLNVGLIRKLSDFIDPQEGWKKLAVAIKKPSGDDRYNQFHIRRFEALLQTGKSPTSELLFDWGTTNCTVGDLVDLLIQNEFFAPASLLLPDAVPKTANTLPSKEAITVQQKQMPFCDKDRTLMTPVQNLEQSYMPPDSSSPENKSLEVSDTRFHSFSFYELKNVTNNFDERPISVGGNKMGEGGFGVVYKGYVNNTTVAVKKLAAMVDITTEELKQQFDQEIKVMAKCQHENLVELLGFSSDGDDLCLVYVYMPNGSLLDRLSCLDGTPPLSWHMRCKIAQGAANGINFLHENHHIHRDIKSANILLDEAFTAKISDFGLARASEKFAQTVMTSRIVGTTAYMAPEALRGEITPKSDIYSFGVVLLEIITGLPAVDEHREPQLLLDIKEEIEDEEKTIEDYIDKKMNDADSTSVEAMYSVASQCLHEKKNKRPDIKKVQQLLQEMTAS
As to the kind of experiment: Selectivity interaction (Kinase panel (Z-LYTE Assay)) EUB0001632a IRAK4. Particulars: at 10 µM.

Experiment [3] deals with T2, Serine/threonine-protein kinase TAO3 (Homo sapiens) (UniProt Q9H2K8).
T2 sequence (whole entry): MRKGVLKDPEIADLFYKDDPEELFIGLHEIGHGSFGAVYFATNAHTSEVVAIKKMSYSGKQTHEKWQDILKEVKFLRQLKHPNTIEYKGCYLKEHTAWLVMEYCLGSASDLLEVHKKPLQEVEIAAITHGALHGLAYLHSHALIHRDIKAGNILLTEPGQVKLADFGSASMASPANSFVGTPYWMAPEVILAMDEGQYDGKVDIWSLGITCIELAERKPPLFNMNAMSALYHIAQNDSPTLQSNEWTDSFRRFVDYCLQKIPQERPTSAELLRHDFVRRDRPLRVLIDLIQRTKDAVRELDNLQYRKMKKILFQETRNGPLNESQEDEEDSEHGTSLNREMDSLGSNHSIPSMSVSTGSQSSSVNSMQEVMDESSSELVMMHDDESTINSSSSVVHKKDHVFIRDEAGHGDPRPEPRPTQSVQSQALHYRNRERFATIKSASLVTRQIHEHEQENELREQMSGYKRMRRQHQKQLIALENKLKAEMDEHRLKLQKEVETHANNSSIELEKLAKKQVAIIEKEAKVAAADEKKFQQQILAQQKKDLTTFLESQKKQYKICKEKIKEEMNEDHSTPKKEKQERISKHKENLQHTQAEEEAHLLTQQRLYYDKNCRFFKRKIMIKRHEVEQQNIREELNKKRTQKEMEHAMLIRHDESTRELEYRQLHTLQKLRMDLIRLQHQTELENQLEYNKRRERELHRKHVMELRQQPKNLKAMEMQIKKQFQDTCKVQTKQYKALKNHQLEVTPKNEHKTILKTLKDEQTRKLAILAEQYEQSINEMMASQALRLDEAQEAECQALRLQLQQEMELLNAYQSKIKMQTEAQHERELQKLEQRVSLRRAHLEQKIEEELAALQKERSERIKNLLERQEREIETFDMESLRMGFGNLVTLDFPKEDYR
As to the kind of experiment: Selectivity interaction (KinomeScan (DiscoverX)) EUB0000666a TAOK3. As to conditions: at 10 µM.

Experiment [4] has as its target T3, Eukaryotic elongation factor 2 kinase (Homo sapiens) (UniProt O00418).
T3 sequence (whole entry): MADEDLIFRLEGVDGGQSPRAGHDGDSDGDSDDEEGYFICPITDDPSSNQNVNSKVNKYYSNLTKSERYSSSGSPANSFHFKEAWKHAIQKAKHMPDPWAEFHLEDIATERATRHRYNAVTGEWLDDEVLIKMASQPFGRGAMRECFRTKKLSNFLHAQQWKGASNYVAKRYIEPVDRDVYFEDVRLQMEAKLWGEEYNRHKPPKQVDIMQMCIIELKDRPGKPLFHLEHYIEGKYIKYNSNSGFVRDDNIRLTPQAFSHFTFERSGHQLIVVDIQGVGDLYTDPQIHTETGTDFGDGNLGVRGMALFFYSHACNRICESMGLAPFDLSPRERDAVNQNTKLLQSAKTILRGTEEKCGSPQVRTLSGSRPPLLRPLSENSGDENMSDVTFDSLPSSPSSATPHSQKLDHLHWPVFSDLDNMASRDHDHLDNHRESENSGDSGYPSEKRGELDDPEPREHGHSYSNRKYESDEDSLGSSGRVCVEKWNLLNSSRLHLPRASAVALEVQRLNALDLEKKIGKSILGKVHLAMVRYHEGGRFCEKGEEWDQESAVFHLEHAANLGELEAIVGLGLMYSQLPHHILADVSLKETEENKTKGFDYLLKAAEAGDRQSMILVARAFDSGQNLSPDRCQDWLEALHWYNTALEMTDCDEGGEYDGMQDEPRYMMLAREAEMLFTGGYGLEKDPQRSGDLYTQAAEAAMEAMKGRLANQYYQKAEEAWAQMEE
As to the kind of experiment: Selectivity interaction (ActivX KiNativ screen (kinase selectivity in THP-1 cell lysates)) EUB0000639a EEF2K. As to conditions: lysate. The format is subcellular.

Experiment [5] has as its target Phosphatidylinositol 4,5-bisphosphate 3-kinase catalytic subunit gamma isoform (Homo sapiens) (UniProt P48736). In words: Selectivity interaction (ActivX KiNativ screen (kinase selectivity in THP-1 cell lysates)) EUB0000639a PIK3CG. The format is subcellular. As to conditions: lysate.
Experiment [6] concerns the target Calcium/calmodulin-dependent protein kinase kinase 2 (Homo sapiens) (UniProt Q96RR4). As to the kind of experiment: Selectivity interaction (ActivX KiNativ screen (kinase selectivity in THP-1 cell lysates)) EUB0000639a CAMKK2. The format is subcellular. Particulars: lysate, at 0.2 µM.
For experiment [7], the target named is Serine/threonine-protein kinase MARK2 (Homo sapiens) (UniProt Q7KZI7). As to the kind of experiment: Selectivity interaction (ActivX KiNativ screen (kinase selectivity in THP-1 cell lysates)) EUB0000639a MARK2. The format is subcellular. Particulars: lysate.
Experiment [8] deals with Cyclin-dependent kinase 2 (Homo sapiens, UniProt P24941). In words: Selectivity interaction (KinomeScan (DiscoverX)) EUB0001049a CDK2. As to conditions: at 1 µM.
Experiment [9] deals with Calcium/calmodulin-dependent protein kinase type II subunit alpha (Homo sapiens, UniProt Q9UQM7). As to the kind of experiment: Selectivity interaction (KinomeScan (DiscoverX)) EUB0000092b CAMK2A. As to conditions: at 10 µM.
For experiment [10], the target named is Tyrosine-protein kinase JAK2 (Homo sapiens, UniProt O60674). In words: Selectivity interaction (KinomeScan (DiscoverX)) EUB0001079a JAK2. As to conditions: at 1 µM.
Sequence of Tyrosine-protein kinase JAK2 (O60674 whole entry): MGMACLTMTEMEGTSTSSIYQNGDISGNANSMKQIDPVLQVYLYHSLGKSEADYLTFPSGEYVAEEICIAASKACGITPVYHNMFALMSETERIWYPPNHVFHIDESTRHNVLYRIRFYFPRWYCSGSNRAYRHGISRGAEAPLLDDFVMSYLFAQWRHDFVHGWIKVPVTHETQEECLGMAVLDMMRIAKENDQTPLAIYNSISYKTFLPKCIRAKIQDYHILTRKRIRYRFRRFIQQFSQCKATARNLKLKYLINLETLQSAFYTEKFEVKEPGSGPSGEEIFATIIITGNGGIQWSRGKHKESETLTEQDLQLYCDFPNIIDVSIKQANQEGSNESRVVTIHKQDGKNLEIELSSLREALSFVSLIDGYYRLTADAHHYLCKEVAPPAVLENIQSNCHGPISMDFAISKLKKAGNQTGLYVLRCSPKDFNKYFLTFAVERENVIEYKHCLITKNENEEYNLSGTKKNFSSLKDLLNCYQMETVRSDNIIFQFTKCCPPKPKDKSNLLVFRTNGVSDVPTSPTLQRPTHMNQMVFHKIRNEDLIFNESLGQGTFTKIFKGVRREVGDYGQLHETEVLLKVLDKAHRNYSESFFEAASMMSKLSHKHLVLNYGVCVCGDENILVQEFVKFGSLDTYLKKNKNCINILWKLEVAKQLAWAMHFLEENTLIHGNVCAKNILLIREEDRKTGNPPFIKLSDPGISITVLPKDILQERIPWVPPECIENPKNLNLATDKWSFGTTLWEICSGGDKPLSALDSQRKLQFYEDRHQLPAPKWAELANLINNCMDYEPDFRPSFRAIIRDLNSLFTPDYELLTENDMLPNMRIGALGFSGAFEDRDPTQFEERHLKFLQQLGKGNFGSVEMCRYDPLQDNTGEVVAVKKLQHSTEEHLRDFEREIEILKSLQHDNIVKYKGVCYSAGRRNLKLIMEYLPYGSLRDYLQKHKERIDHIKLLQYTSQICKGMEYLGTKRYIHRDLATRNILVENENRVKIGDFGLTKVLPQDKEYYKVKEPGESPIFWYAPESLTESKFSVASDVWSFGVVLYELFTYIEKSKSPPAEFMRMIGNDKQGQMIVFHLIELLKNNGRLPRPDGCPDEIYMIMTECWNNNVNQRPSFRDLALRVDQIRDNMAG

Sequence of Serine/threonine-protein kinase MARK2 (Homo sapiens) (Q7KZI7 whole entry): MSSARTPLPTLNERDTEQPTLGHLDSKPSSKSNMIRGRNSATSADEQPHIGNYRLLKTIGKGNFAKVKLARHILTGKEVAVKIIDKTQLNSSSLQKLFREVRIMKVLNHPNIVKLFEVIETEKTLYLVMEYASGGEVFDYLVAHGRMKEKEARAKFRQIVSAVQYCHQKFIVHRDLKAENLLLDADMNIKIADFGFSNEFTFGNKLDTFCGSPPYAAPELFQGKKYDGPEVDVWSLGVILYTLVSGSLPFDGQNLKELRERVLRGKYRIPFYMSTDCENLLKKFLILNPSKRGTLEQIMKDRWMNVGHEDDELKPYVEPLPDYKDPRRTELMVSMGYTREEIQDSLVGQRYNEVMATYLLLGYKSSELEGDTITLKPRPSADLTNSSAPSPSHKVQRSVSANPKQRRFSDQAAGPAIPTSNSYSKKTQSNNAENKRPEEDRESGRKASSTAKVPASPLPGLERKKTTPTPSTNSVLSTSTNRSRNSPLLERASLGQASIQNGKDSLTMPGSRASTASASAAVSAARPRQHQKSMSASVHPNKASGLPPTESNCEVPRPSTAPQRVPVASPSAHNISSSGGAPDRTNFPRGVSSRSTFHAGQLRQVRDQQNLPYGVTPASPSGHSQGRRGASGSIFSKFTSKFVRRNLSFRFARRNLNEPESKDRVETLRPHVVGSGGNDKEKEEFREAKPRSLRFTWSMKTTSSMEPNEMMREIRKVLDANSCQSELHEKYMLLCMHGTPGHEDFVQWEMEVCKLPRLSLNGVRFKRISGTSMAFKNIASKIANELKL
Sequence of Phosphatidylinositol 4,5-bisphosphate 3-kinase catalytic subunit gamma isoform (Homo sapiens) (P48736 whole entry, looked up, canonical isoform): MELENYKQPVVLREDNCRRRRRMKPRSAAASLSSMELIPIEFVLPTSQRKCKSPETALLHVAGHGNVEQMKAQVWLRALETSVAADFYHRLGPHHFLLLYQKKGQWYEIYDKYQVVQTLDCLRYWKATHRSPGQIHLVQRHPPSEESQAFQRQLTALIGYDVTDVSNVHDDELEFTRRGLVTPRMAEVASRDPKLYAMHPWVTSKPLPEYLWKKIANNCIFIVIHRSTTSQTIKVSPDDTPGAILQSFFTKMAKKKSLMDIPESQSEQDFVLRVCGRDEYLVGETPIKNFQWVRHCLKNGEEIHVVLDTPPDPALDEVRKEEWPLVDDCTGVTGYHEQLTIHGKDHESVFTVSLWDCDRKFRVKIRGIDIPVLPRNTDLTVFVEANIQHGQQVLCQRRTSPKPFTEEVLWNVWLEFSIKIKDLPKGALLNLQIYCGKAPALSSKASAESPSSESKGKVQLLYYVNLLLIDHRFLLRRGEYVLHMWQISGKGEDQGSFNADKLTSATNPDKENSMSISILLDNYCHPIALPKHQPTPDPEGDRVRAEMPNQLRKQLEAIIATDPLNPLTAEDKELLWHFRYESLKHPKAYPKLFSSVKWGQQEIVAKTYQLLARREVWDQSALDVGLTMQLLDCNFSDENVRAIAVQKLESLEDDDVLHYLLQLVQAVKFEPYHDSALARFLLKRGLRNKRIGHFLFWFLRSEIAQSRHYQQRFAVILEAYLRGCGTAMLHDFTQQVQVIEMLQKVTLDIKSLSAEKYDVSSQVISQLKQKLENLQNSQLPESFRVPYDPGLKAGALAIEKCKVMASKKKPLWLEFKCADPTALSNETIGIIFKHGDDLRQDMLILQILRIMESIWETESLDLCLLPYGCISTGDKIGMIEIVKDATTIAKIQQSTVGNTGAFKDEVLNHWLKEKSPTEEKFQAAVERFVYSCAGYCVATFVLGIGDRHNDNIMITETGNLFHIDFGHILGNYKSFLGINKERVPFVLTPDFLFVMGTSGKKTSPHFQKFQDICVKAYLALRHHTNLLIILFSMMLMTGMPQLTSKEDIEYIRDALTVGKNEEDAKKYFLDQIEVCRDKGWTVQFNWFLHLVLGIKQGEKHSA
Sequence of Calcium/calmodulin-dependent protein kinase type II subunit alpha (Q9UQM7 whole entry): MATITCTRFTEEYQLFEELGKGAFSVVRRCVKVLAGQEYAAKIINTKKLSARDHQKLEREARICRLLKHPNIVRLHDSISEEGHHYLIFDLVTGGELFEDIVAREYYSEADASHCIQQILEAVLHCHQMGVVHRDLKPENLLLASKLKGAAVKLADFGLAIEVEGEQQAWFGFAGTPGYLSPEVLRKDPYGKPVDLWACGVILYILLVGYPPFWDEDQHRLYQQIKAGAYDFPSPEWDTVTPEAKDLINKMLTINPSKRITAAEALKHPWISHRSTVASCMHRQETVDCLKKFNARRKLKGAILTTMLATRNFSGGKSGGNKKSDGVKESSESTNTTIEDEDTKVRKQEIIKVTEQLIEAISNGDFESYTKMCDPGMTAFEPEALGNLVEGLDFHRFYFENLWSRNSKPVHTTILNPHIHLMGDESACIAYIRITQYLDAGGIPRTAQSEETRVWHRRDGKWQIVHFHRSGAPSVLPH
Sequence of Bone morphogenetic protein receptor type-1A (P36894 whole entry): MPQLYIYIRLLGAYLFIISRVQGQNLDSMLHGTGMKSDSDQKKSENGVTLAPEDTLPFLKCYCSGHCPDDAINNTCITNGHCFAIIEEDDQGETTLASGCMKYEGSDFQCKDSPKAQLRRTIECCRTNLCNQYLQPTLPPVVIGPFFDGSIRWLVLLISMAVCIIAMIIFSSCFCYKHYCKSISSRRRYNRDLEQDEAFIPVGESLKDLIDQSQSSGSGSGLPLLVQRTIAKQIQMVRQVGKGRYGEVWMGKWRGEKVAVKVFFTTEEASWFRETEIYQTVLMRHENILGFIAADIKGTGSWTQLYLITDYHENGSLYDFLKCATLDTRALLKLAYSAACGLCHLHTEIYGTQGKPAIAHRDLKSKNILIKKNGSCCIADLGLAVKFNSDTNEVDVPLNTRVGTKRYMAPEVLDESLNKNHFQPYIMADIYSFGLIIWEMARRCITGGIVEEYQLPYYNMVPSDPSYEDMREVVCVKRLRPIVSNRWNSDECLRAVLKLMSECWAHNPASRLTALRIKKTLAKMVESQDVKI
Sequence of Calcium/calmodulin-dependent protein kinase kinase 2 (Homo sapiens) (Q96RR4 2-588 limits assumed): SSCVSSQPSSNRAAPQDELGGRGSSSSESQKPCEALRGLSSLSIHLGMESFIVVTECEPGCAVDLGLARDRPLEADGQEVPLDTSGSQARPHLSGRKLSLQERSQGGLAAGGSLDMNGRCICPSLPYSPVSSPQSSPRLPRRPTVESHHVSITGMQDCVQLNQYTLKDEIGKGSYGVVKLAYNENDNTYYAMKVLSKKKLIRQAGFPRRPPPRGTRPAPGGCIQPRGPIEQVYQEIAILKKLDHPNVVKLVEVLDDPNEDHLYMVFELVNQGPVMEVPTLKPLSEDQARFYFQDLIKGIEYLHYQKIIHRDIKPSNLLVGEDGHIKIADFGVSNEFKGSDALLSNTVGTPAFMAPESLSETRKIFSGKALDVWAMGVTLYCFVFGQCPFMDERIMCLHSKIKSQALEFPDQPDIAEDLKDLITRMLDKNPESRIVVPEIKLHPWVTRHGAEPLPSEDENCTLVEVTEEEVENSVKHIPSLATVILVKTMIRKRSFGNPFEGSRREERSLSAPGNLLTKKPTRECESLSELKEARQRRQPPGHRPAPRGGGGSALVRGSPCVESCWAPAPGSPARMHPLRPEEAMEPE

In the case of `Cn1cc(-n2cnc3c(NCc4nc5cc(Cl)c(Cl)cc5[nH]4)nc(N4CCOCC4)nc32)cn1`, the % of inhibition in [1] is -8.67%. The % of control in experiment [2] was found to be 2.42%.

Molecule `O=C(NOC[C@H](O)CO)c1ccc(F)c(F)c1Nc1ccc(I)cc1F` registered a % of control in experiment [3] of 89%.

On to `CC[C@@H]1[C@H](F)C(=O)N[C@@H]1COc1nccc2cc(C(N)=O)c(OC)cc12` [ZIMLOVISERTIB], for which the % of inhibition is 4.3% in experiment [4] (at 0.01 µM); -14.7% in experiment [4] (at 0.04 µM); 2.9% in experiment [4] (at 0.2 µM); -15.8% in [4] (at 1 µM); -3.6% in experiment [4] (at 5 µM); 6.3% in experiment [5] (at 0.01 µM). For the same molecule, the % of inhibition in experiment [5] (at 0.04 µM) was 12%; in experiment [5] (at 0.2 µM), 7.4%; in experiment [5] (at 1 µM), 13.3%; in [5] (at 5 µM) it was 2.6%; in experiment [6], -5.9%; in experiment [7] (at 0.01 µM), -8%. The % of inhibition was found to be 6.9% in experiment [7] (at 0.04 µM), 9.9% in experiment [7] (at 0.2 µM), 30% in [7] (at 1 µM) and 56.3% in experiment [7] (at 5 µM).

`COc1cc(Nc2nc(C)cc(-c3cnn4nc(OC)ccc34)n2)cc(C(F)(F)F)c1` had a % of control in experiment [8] of 91%.

`CCC(=O)N1CCN(c2ccc(-n3c(=O)ccc4cnc5ccc(-c6cnc7ccccc7c6)cc5c43)cc2C(F)(F)F)CC1`: the % of control in experiment [9] is 93%.

Regarding `Nc1cnc(N2CCc3cc(S(=O)(=O)Nc4c(F)cc(Cl)cc4F)cc(N4CCCC4=O)c32)nc1` [TP-020n], in experiment [10], the % of control stood at 100%.
